Legend:
[1] = system: intracellular S. aureus strain UAMS-1 in murine calvaria; experiment: Ex vivo neonatal mouse calvaria intracellular eradication; format: cell-based
Procedure: Neonatal mouse whole calvaria were treated for 4 hours with chimeric peptidoglycan hydrolases or buffer alone, 24 hours post inoculation with GFP-expressing S. aureus. Calvaria were embedded in freeze media, sectioned, and subjected to fluorescence imaging. The image shown is a representative figure for triplicate sections of three separate calvaria. FIG. 8b depicts fluorescence intensity from these sections measured in ImageJ and defined as arbitrary fluorescence standardized to the untreated control. Error bars represent SEM of four replicate experiments. FIG. 8c depicts ex-vivo intracellular S. aureus eradication. Infected calvaria were homogenized and CFU were counted post treatment. Error bars represent SEM. FIG. 8d depicts a murine model of staphylococcal osteomyelitis. C57BL/6J mice were anesthetized and their femurs were surgically exposed. A trough was drilled through the bone cortex and the damaged bone sites were inoculated with 1×10^3 CFU S. aureus in agarose beads. After 24 hours, mice were treated (i.m. to site of infection) twice in a 24 h period with PBS or 5 mg/kg of triple fusion K-L or K-L-PTD1. The femurs were removed, homogenized, and plated to quantify the bacterial load. Bars indicate the average CFU recovered (N=6). […] Asterisks represent statistical significance as determined by one-way ANOVA followed by Tukey's posthoc test.
To examine the intracellular uptake and eradication in murine osteoblast-containing tissue samples, both ex vivo calvaria (skull cap), and in vivo femur injury models were tested. Calvaria were isolated from neonatal mice and infected with UAMS-1 strain of S. aureus (1×10^6 bacteria/calvaria) for 2 h at 37° C. in osteoblast growth medium in the absence of antibiotics. Following 3× washes with PBS, calvaria were exposed to 50 μg/ml of gentamicin for 15 min to kill extracellular bacteria and further cultured in gentamicin containing osteoblast growth media. After 24 h later, calvaria were treated with peptidoglycan hydrolases (5 μg/ml) or gentamicin only control for 2 h. Lysis buffer containing 0.05% trypsin and 0.25% Triton X-100 was used to homogenize the calvaria, the homogenates were quantitatively plated on LB agar plates, and the CFU were enumerated after 24 h. The data represents triplicate determinants of two separate experiments.
Calvaria were isolated, and infected as described above using GFP-tagged UAMS-1 strain of S. aureus. Two hours post-infection, calvaria were washed with PBS followed by a 15 minutes treatment with 50 μg/ml gentamicin to kill extracellular bacteria. 24 hours post-infection, calvaria were treated with 5 μg/ml peptidoglycan hydrolases or gentamicin only control for two hours and embedded in Tissue-Tek O.C.T compound (Sakura, Torrance, Calif.). […]

[2] = system: intracellular S. aureus Newbould 305 in bovine mammary epithelial cell line (MAC-T); experiment: Intracellular S. aureus eradication assay in MAC-T cells; format: cell-based; conditions: 25 μg in 1 ml DMEM, 2.5 h
Source text: FIGS. 5a-5e depict peptidoglycan hydrolase-protein transduction domain (PGH-PTD) eradication of intracellular S. aureus in cultured cells. Cultured cells were infected, treated with gentamicin to kill extracellular S. aureus, and then treated with the peptidoglycan hydrolases indicated. All results are standardized to the gentamicin (GENT) only control. Nomenclature of the peptidoglycan hydrolase constructs is as in FIG. 1. Asterisks indicate statistical significance detected with single factor ANOVA (α=0.05) with paired t-test posthoc analyses α=0.05 adjusted with Sidák correction for multiple comparisons (for all cases p<0.01). […] Error bars represent SEM. […] Yellow staining in the combined panel represents intracellular co-localization (in a single plane as determined by z-stack analysis) of both S. aureus and K-L-PTD1 (blue arrow). […]
Three similar intracellular S. aureus eradication assays from three different labs were optimized for (A) a cultured bovine mammary epithelial cell line (MAC-T, Nexia Biotechnologies, Quebec, Canada; Almeida, supra), (B) primary C57BL/6 mouse-derived osteoblasts (mOBs) (McCall et al. 2008. J. Bone Miner. Res. 23: 30-40) or (C) human brain microvascular endothelial cells (hBMEC; Stins, supra). […] The cell lysate was subjected to serial dilution plating, and the resultant CFUs were counted and normalized to the gentamicin control for each assay. […]

## K-L: both LysK lytic domains fused to the N-terminus of lysostaphin; SEQ ID NO:5, protein SEQ ID NO:6
[1]; 5 μg/ml for 2 h, homogenized calvaria
  live bacteria (CFU) recovered from calvaria: able to reduce the number of live bacteria recovered from sectioned calvaria
[1]; 5 μg/ml, 24 hours post-infection, sectioned calvaria
  elimination of GFP-labeled intracellular S. aureus (fluorescence): able to eliminate GFP-labeled intracellular S. aureus strain UAMS-1 from murine calvaria
[2]
  intracellular S. aureus CFUs relative to gentamicin only control: reduced the intracellular bacteria recovered

— patent publication US20160097044A1, “Antimicrobial Enzyme Fusions Reduce Resistance and Kill Intracellular Staphylococcus aureus” (The United States of America, as Represented by the …, priority 2014, published 2016)
